Measurements: patent publication US6140341A, “Aminoalkyl and acylaminoalkyl ethers, process for their preparation, and their use as bradykinin receptor antagonists” (Hoechst Aktiengesellschaft, priority 1996, dated 2000)

What was measured:
[1] = system: bradykinin-induced contraction of the guinea pig ileum; test: Bradykinin-antagonistic effect on the bradykinin-induced contraction of the isolated guinea pig ileum; conditions: Cavia porcellus, 10 min, Tyrode solution 37° C., antagonist action time 10 min
From the text: Furthermore, to determine the bradykinin-antagonistic effect of the compounds of the formula (I) it is possible to measure their effect on the bradykinin-induced contraction of the guinea pig ileum by the following protocol:
Guinea pigs weighing about 300 g (Morioth strain,--) are sacrificed by a blow to the back of the neck and are exsanguinated. A length of about 20 cm of ileum is dissected out and rinsed with Tyrode solution (Record syringe), thus removing intestinal contents. It is then divided into segments 1.5 cm long. These are fixed in organ baths with a capacity of 10 ml which are filled with Tyrode solution, and are connected to strain gauges (isometric contraction measurement). The initial load is 1 g. The Tyrode solution is heated in a water bath to 37° C., and compressed air is bubbled through.
After an interval of 30 min, the experiment is started. After recording the biological zero line, bradykinin is added to each organ bath in a final concentration of […], and the concentration is recorded. Then, after rinsing with Tyrode solution for 3 min and a resting period of 20 min, bradykinin is again added. The maximum contraction is reached (control). Rinsing and resting period repeated. The bradykinin antagonist is then added (action time 10 min.). […] The experiment is recorded on a pen recorder. […]

bradykinin B2 receptor = biological target: T1, bradykinin B2 receptor (Cavia porcellus, UniProt O70526); test: Affinity for the bradykinin B2 receptor on membrane preparations from guinea pig ileum (3H-bradykinin competition); type: binding; conditions: 3H-bradykinin (0.25 to 0.3 nMol/l), guinea pig ileum membranes, pH 6.8, room temperature, 60 minutes
T1 construct: preparations of membranes from the guinea pig ileum; from tissue; host or cells: guinea pig ileum membranes
T1 sequence (O70526 1-372): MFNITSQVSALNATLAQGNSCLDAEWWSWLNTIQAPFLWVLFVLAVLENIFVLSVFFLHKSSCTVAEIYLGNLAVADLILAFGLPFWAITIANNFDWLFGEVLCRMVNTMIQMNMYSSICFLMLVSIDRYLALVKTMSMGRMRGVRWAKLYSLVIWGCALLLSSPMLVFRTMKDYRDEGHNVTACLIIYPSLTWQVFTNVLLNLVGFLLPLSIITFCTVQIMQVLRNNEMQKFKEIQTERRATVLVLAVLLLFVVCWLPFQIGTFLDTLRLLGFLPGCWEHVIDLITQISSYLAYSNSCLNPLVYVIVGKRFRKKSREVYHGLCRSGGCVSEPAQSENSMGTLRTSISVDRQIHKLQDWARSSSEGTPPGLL
Procedure: Determination of the affinity of the compounds of the formula (I) for the bradykinin B2 receptor took place on preparations of membranes from the guinea pig ileum (R. B. Innis et al., Proc. Natl. Acad. Sci. USA; […] (1981) 2630) by the following method:
1. Ligand: ^3 H-BRADYKININ (from NEN Du Pont)
25 mM TES (SIGMA, Order No.: T-4152)
1 mM 1,10-phenanthroline (SIGMA; Order No.: P-9375)
25 mM TES (SIGMA; Order No.: T-4152)
0.1% albumin, bovine (SIGMA; Order No.: A-7906)
140 μg/ml bacitracin (SIGMA; Order No.: B-0125)
1 mM dithiothreitol (SIGMA; Order No.: D-0632)
1 μM captopril-1-[(2S)-3-mercapto-2-methylpropionyl]-L-proline
Both buffers are adjusted to pH 6.8 with 5 molar NaOH.
Guinea pig ilea are carefully squeezed out to remove most of the intestinal contents and are cleaned in 0.9% strength NaCl solution.
The pieces of ilea about 2 cm long are transferred into ice-cold TES buffer (about 1 g/10 ml) and homogenized with an Ultraturrax in an ice bath for about 30 sec. The homogenate is then filtered through 3 layers of gauze and the filtrate is centrifuged at 50,000 g for 10 minutes.
The supernatant is discarded, and the pellet is rehomogenized in the same volume of TES buffer and again centrifuged at 50,000 g for 10 minutes. The pellet is rehomogenized in incubation buffer (about 1 g/5 ml) and frozen in 2 ml portions in cryotubes at -70° C.
The protein concentration in the finished membrane suspension is determined by the LOWRY method and should be about 15 μg/100 μl.
All the incubations are carried out in a volume of 200 μl in microtiter plates (96×300 μl) at room temperature for 60 minutes. All mixtures in incubation bufler. 50 μl of the radioligands, 50 μl of the product to be tested and 100 μl of the membrane suspension are successively pipetted into these in the wells of the microtiter plate. […]
a) Saturation experiments (hot saturation): […]
Nonspecific binding: The nonspecific binding must be determined for each concentration of the radioactive ligand. […]

| IC50 [1] | Ki (bradykinin B2 receptor) | Compound |
| --- | --- | --- |
| 1800 nM | – | Cc1ccc2cccc(OCc3c(Cl)ccc(OCCN)c3Cl)c2n1 [Example 1, 8-[3-(2-aminoethoxy)-2,6-dichlorobenzyloxy]-2-methylquinoline] |
| – | 20 nM | Cc1ccc2cccc(OCc3c(Cl)ccc(OCCNC(=O)/C=C/c4ccc(N)cc4)c3Cl)c2n1 [Example 2, 8-[3-(2-N-(trans-4-aminocinnamoyl)aminoethoxy)-2,6-dichlorobenzyloxy]-2-methylquinoline] |
| – | 61 nM | Cc1ccc2cccc(OCc3c(Cl)ccc(OCCNC(=O)/C=C/c4ccccc4)c3Cl)c2n1 [Example 5, 8-[2,6-dichloro-3-(trans-2-N-cinnamoylaminoethoxy)benzyloxy]-2-methylquinoline] |
| – | 32 nM | COc1ccc(/C=C/C(=O)NCCOc2ccc(Cl)c(COc3cccc4ccc(C)nc34)c2Cl)cc1 [Example 6, 8-[2,6-dichloro-3-(2-N-(trans-4-methoxycinnamoyl)aminoethoxy)benzyloxy]-2-methylquinoline] |
